Measured values taken from patent US20240252446A1, “DERIVATIZED COLLAGEN-HYALURONIC ACID BASED IMPLANTS FOR SUSTAINED DELIVERY OF OPHTHALMIC DRUGS” (SUSTAINED DRUG DELIVERY LLC, priority 2023, published 2024).

Assay: Evaluation of active agent release in vitro from polymerized collagen-hyaluronic acid film (HPLC)
Format: physicochemical
Conditions: from UV-polymerized (18 min, 254 nm) collagen-hyaluronic acid film, 0.01 M phosphate buffer pH 7.4, 37° C., 1 hour to 3 months
Protocol: Four round pieces of 35 mm diameter polymerized film were cut into 4 sections and placed in 1.5 mL vials containing 1 mL of 0.01 M phosphate buffer at a pH of 7.4. The 16 vials were placed in a controlled temperature chamber at 37° C. Five aliquots of 100 μL were removed from 2 vials each at 1 hour, 3 days, 7 days, 2 weeks, 1 month, 2 months, and 3 months. Two vials were reserved for additional time periods if release was still noted at 3 months. Four vials of buffer only were used for controls.
Active agent concentration (e.g., Latanoprost) was measured by HPLC at Millennium Research Laboratories. Detection at nanogram levels was validated using active agent (e.g., Latanoprost) standards and concentration curves.

CC(C)OC(=O)CCC/C=C\C[C@@H]1[C@@H](CC[C@@H](O)CCc2ccccc2)[C@H](O)C[C@@H]1O [Latanoprost, 13,14-dihydro-17-phenyl-18,19,20-trinor-prostaglandin F2a-1-isopropyl ester]
Active agent release profile: initial bolus release at 1 day followed by sustained, zero order release through 3 months
